Our source for the IC50 values is patent US12540143B2, “Methods and compositions for targeted protein degradation” (Ranok Therapeutics (Hangzhou) Co. Ltd., priority 2019, dated 2026).

The test relates to MV4-11 cells. In words: MV4-11 Cytotoxicity Assay. It counts as cell-based, human. Conditions: Homo sapiens, MV4-11; 72 hr, CCK-8; read-out: MV4-11 cytotoxicity.
On to `Cc1sc2c(c1C)C(c1ccc(Cl)cc1)=N[C@@H](CC(=O)NCCOCCOc1ccc(-n3c(S)nnc3-c3cc(C(C)C)c(O)cc3O)cc1)c1nnc(C)n1-2` [Compound 33, (S)-2-(4-(4-chlorophenyl)-2,3,9-trimethyl-6H-thieno[3,2-f][1,2,4]triazolo[4,3-a][1,4]diazepin-6-yl)-N-(2-(2-(4-(3-(2,4-dihydroxy-5-isopropylphenyl)-5-mercapto-4H-1,2,4-triazol-4-yl)phenoxy)ethoxy)ethyl)acetamide], for which the IC50 fell in the range of 100 to 1000 nM.

As for `Cc1sc2c(c1C)C(c1ccc(Cl)cc1)=N[C@@H](CC(=O)NCCOCCOCCOc1ccc(-n3c(S)nnc3-c3cc(C(C)C)c(O)cc3O)cc1)c1nnc(C)n1-2` [Compound 34, (S)-2-(4-(4-chlorophenyl)-2,3,9-trimethyl-6H-thieno[3,2-f][1,2,4]triazolo[4,3-a][1,4]diazepin-6-yl)-N-(2-(2-(2-(4-(3-(2,4-dihydroxy-5-isopropylphenyl)-5-mercapto-4H-1,2,4-triazol-4-yl)phenoxy)ethoxy)ethoxy)ethyl)acetamide], the IC50 fell in the range of 100 to 1000 nM.

Regarding `Cc1sc2c(c1C)C(c1ccc(Cl)cc1)=N[C@@H](CC(=O)NCCOCCN1CCC(Cc3ccc(-n4c(O)nnc4-c4cc(C(C)C)c(O)cc4O)cc3)CC1)c1nnc(C)n1-2` [Compound 37, 2-((6S)-4-(4-chlorophenyl)-2,3,9-trimethyl-6H-thieno[3,2-f][1,2,4]triazolo[4,3-a][1,4]diazepin-6-yl)-N-(2-(2-(4-(4-(3-(2,4-dihydroxy-5-isopropylphenyl)-5-hydroxy-4H-1,2,4-triazol-4-yl)benzyl)piperidin-1-yl)ethoxy)ethyl)acetamide, trifluoroacetic acid], the IC50 was in the range of 100 to 1000 nM.

In the case of `Cc1sc2c(c1C)C(c1ccc(Cl)cc1)=N[C@@H](CC(=O)N1CCN(Cc3ccc(-n4c(O)nnc4-c4cc(C(C)C)c(O)cc4O)cc3)CC1)c1nnc(C)n1-2` [Compound 38, 2-((6S)-4-(4-chlorophenyl)-2,3,9-trimethyl-6H-thieno[3,2-f][1,2,4]triazolo[4,3-a][1,4]diazepin-6-yl)-1-(4-(4-(3-(2,4-dihydroxy-5-isopropylphenyl)-5-hydroxy-4H-1,2,4-triazol-4-yl)benzyl)piperazin-1-yl)ethanone, trifluoroacetic acid], the IC50 was less than 100 nM.

Turning to `Cc1sc2c(c1C)C(c1ccc(Cl)cc1)=N[C@@H](CC(=O)N1CCC(CN3CCN(c4ccc(-n5c(O)nnc5-c5cc(C(C)C)c(O)cc5O)cc4)CC3)CC1)c1nnc(C)n1-2` [Compound 41, (S)-2-(4-(4-chlorophenyl)-2,3,9-trimethyl-6H-thieno[3,2-f][1,2,4]triazolo[4,3-a][1,4]diazepin-6-yl)-1-(4-((4-(4-(3-(2,4-dihydroxy-5-isopropylphenyl)-5-hydroxy-4H-1,2,4-triazol-4-yl)phenyl)piperazin-1-yl)methyl)piperidin-1-yl)ethanone], the IC50 is less than 100 nM.

In the case of `Cc1sc2c(c1C)C(c1ccc(Cl)cc1)=N[C@@H](CC(=O)N1CCC(N3CCN(Cc4ccc(-n5c(O)nnc5-c5cc(C(C)C)c(O)cc5O)cc4)CC3)CC1)c1nnc(C)n1-2` [Compound 42, (S)-2-(4-(4-chlorophenyl)-2,3,9-trimethyl-6H-thieno[3,2-f][1,2,4]triazolo[4,3-a][1,4]diazepin-6-yl)-1-(4-(4-(4-(3-(2,4-dihydroxy-5-isopropylphenyl)-5-hydroxy-4H-1,2,4-triazol-4-yl)benzyl)piperazin-1-yl)piperidin-1-yl)ethan-1-one, trifluoroacetic acid], the IC50 is less than 100 nM.

Turning to `Cc1sc2c(c1C)C(c1ccc(Cl)cc1)=N[C@@H](CC(=O)N1CCC(N3CCN(c4ccc(-n5c(O)nnc5-c5cc(C(C)C)c(O)cc5O)cc4)CC3)CC1)c1nnc(C)n1-2` [Compound 43, 2-((6S)-4-(4-chlorophenyl)-2,3,9-trimethyl-6H-thieno[3,2-f][1,2,4]triazolo[4,3-a][1,4]diazepin-6-yl)-1-(4-(4-(4-(3-(2,4-dihydroxy-5-isopropylphenyl)-5-hydroxy-4H-1,2,4-triazol-4-yl)phenyl)piperazin-1-yl)piperidin-1-yl)ethanone, trifluoroacetic acid], the IC50 was less than 100 nM.

`Cc1sc2c(c1C)C(c1ccc(Cl)cc1)=N[C@@H](CC(=O)NCC1CCN(C(=O)C3CCN(Cc4ccc(-n5c(O)nnc5-c5cc(C(C)C)c(O)cc5O)cc4)CC3)C1)c1nnc(C)n1-2` (stereo partly drawn) [Compound 45, 2-((S)-4-(4-chlorophenyl)-2,3,9-trimethyl-6H-thieno[3,2-f][1,2,4]triazolo[4,3-a][1,4]diazepin-6-yl)-N-((1-(1-(4-(3-(2,4-dihydroxy-5-isopropylphenyl)-5-hydroxy-4H-1,2,4-triazol-4-yl)benzyl)piperidine-4-carbonyl)pyrrolidin-3-yl)methyl)acetamide, trifluoroacetic acid]: the IC50 is less than 100 nM.

In the case of `Cc1sc2c(c1C)C(c1ccc(Cl)cc1)=N[C@@H](CC(=O)NCC(=O)NCCOc1ccc(-n3c(S)nnc3-c3cc(C(C)C)c(O)cc3O)cc1)c1nnc(C)n1-2` [Compound 48, (S)-2-(4-(4-chlorophenyl)-2,3,9-trimethyl-6H-thieno[3,2-f][1,2,4]triazolo[4,3-a][1,4]diazepin-6-yl)-N-(2-((2-(4-(3-(2,4-dihydroxy-5-isopropylphenyl)-5-mercapto-4H-1,2,4-triazol-4-yl)phenoxy)ethyl)amino)-2-oxoethyl)acetamide], the IC50 fell in the range of 100 to 1000 nM.

In the case of `Cc1sc2c(c1C)C(c1ccc(Cl)cc1)=N[C@@H](CC(=O)NCCOCCN1CCN(Cc3ccc(-n4c(O)nnc4-c4cc(C(C)C)c(O)cc4O)cc3)CC1)c1nnc(C)n1-2` [Compound 49, 2-((6S)-4-(4-chlorophenyl)-2,3,9-trimethyl-6H-thieno[3,2-f][1,2,4]triazolo[4,3-a][1,4]diazepin-6-yl)-N-(2-(2-(4-(4-(3-(2,4-dihydroxy-5-isopropylphenyl)-5-hydroxy-4H-1,2,4-triazol-4-yl)benzyl)piperazin-1-yl)ethoxy)ethyl)acetamide, trifluoroacetic acid, trifluoroacetic acid, trifluoroacetic acid, trifluoroacetic …], the IC50 was less than 100 nM.

For `Cc1sc2c(c1C)C(c1ccc(Cl)cc1)=N[C@@H](CC(=O)NCCOc1cccc(CN(C)Cc3ccc(-n4c(O)nnc4-c4cc(C(C)C)c(O)cc4O)cc3)c1)c1nnc(C)n1-2` [Compound 50, 2-((6S)-4-(4-chlorophenyl)-2,3,9-trimethyl-6H-thieno[3,2-f][1,2,4]triazolo[4,3-a][1,4]diazepin-6-yl)-N-(2-(3-(((4-(3-(2,4-dihydroxy-5-isopropylphenyl)-5-hydroxy-4H-1,2,4-triazol-4-yl)benzyl)(methyl)amino)methyl)phenoxy)ethyl)acetamide, trifluoroacetic acid, trifluoroacetic acid, trifluoroacetic acid, trifluoroacetic …], the IC50 was less than 100 nM.

With `Cc1sc2c(c1C)C(c1ccc(Cl)cc1)=N[C@@H](CC(=O)NCCOCc1ccc(-n3c(O)nnc3-c3cc(C(C)C)c(O)cc3O)cc1)c1nnc(C)n1-2` [Compound 52, 2-((6S)-4-(4-chlorophenyl)-2,3,9-trimethyl-6H-thieno[3,2-f][1,2,4]triazolo[4,3-a][1,4]diazepin-6-yl)-N-(2-((4-(3-(2,4-dihydroxy-5-isopropylphenyl)-5-hydroxy-4H-1,2,4-triazol-4-yl)benzyl)oxy)ethyl)acetamide], the IC50 lay within 100 to 1000 nM.

On to `Cc1sc2c(c1C)C(c1ccc(Cl)cc1)=N[C@@H](CC(=O)NCC1CCN(C(=O)C3CCN(Cc4ccc(-n5c(O)nnc5-c5cc(C(C)C)c(O)cc5O)cc4)CC3)CC1)c1nnc(C)n1-2` [Compound 53, (S)-2-(4-(4-chlorophenyl)-2,3,9-trimethyl-6H-thieno[3,2-f][1,2,4]triazolo[4,3-a][1,4]diazepin-6-yl)-N-((1-(1-(4-(3-(2,4-dihydroxy-5-isopropylphenyl)-5-hydroxy-4H-1,2,4-triazol-4-yl)benzyl)piperidine-4-carbonyl)piperidin-4-yl)methyl)acetamide, trifluoroacetic acid], for which the IC50 was less than 100 nM.

`Cc1sc2c(c1C)C(c1ccc(Cl)cc1)=N[C@@H](CC(=O)NCC(=O)NCCOc1ccc(-n3c(O)nnc3-c3cc(C(C)C)c(O)cc3O)cc1)c1nnc(C)n1-2` [Compound 54, (S)-2-(4-(4-chlorophenyl)-2,3,9-trimethyl-6H-thieno[3,2-f][1,2,4]triazolo[4,3-a][1,4]diazepin-6-yl)-N-(2-((2-(4-(3-(2,4-dihydroxy-5-isopropylphenyl)-5-hydroxy-4H-1,2,4-triazol-4-yl)phenoxy)ethyl)amino)-2-oxoethyl)acetamide]: the IC50 fell in the range of 100 to 1000 nM.

Turning to `Cc1sc2c(c1C)C(c1ccc(Cl)cc1)=N[C@@H](CC(=O)NCC(=O)NCCOCCOc1ccc(-n3c(O)nnc3-c3cc(C(C)C)c(O)cc3O)cc1)c1nnc(C)n1-2` [Compound 55, (S)-2-(4-(4-chlorophenyl)-2,3,9-trimethyl-6H-thieno[3,2-f][1,2,4]triazolo[4,3-a][1,4]diazepin-6-yl)-N-(2-((2-(2-(4-(3-(2,4-dihydroxy-5-isopropylphenyl)-5-hydroxy-4H-1,2,4-triazol-4-yl)phenoxy)ethoxy)ethyl)amino)-2-oxoethyl)acetamide], the IC50 lay in the range of 100 to 1000 nM.

On to `CCc1cc(-c2nnc(O)n2-c2ccc(CNC(=O)C[C@@H]3N=C(c4ccc(Cl)cc4)c4c(sc(C)c4C)-n4c(C)nnc43)cc2)c(O)cc1O` [Compound 56, 2-((6S)-4-(4-chlorophenyl)-2,3,9-trimethyl-6H-thieno[3,2-f][1,2,4]triazolo[4,3-a][1,4]diazepin-6-yl)-N-(4-(3-(5-ethyl-2,4-dihydroxyphenyl)-5-hydroxy-4H-1,2,4-triazol-4-yl)benzyl)acetamide], for which the IC50 is 100 to 1000 nM.

Take `Cc1sc2c(c1C)C(c1ccc(Cl)cc1)=N[C@@H](CC(=O)NCC(=O)NCc1ccc(-n3c(O)nnc3-c3cc(C(C)C)c(O)cc3O)cc1)c1nnc(C)n1-2` [Compound 57, 2-((6S)-4-(4-chlorophenyl)-2,3,9-trimethyl-6H-thieno[3,2-f][1,2,4]triazolo[4,3-a][1,4]diazepin-6-yl)-N-(2-((4-(3-(2,4-dihydroxy-5-isopropylphenyl)-5-hydroxy-4H-1,2,4-triazol-4-yl)benzyl)amino)-2-oxoethyl)acetamide]: the IC50 lay in the range of 100 to 1000 nM.
